Data reported in patent US6352958B1, “Cycloimido-substituted benzofused heterocyclic herbicides” (FMC Corporation, priority 1997, dated 2002).

Experiments:
Assay type in all cases: in vivo
[1] = tested on: velvetleaf (Abutilon theophrasti); test: Postemergence herbicidal activity, velvetleaf; settings: rate of application 0.3 Kg/Ha, rated after 12-17 days
[2] = tested on: soybean (Glycine max var. Winchester); test: Preemergence herbicidal activity, soybean; settings: Rate of Application 0.3 Kg/Ha, examined after 12-17 days
[3] = tested on: common chickweed (Stellaria media); test: Preemergence herbicidal activity, chickweed; settings: Rate of Application 0.3 Kg/Ha, examined after 12-17 days
[4] = tested on: common cocklebur (Xanthium strumarium L.); test: Preemergence herbicidal activity, cocklebur; settings: Rate of Application 0.3 Kg/Ha, examined after 12-17 days
[5] = tested on: wheat (Triticum aestivum var. Lew); test: Preemergence herbicidal activity, wheat; settings: Rate of Application 0.3 Kg/Ha, examined after 12-17 days
[6] = tested on: morningglory (Ipomea lacunosa or Ipomea hederacea); test: Postemergence herbicidal activity, morningglory; settings: rate of application 0.3 Kg/Ha, rated after 12-17 days
[7] = tested on: Johnsongrass (Sorghum halepense); test: Preemergence herbicidal activity, johnsongrass; settings: Rate of Application 0.3 Kg/Ha, examined after 12-17 days
[8] = tested on: velvetleaf (Abutilon theophrasti); test: Preemergence herbicidal activity, velvetleaf; settings: Rate of Application 0.3 Kg/Ha, examined after 12-17 days
[9] = tested on: morningglory (Ipomea lacunosa or Ipomea hederacea); test: Preemergence herbicidal activity, morningglory; settings: Rate of Application 0.3 Kg/Ha, examined after 12-17 days
[10] = tested on: soybean (Glycine max var. Winchester); test: Postemergence herbicidal activity, soybean; settings: rate of application 0.3 Kg/Ha, rated after 12-17 days
[11] = tested on: wheat (Triticum aestivum var. Lew); test: Postemergence herbicidal activity, wheat; settings: rate of application 0.3 Kg/Ha, rated after 12-17 days
[12] = tested on: Johnsongrass (Sorghum halepense); test: Postemergence herbicidal activity, johnsongrass; settings: rate of application 0.3 Kg/Ha, rated after 12-17 days
[13] = tested on: green foxtail (Setaria viridis); test: Postemergence herbicidal activity, green foxtail; settings: rate of application 0.3 Kg/Ha, rated after 12-17 days
[14] = tested on: field corn (Zea mays var. Pioneer 3732); test: Postemergence herbicidal activity, corn; settings: rate of application 0.3 Kg/Ha, rated after 12-17 days
[15] = tested on: blackgrass (Aloepecurus myosuroides); test: Postemergence herbicidal activity, blackgrass; settings: rate of application 0.3 Kg/Ha, rated after 12-17 days
Method: The benzofused heterocyclic compounds of this invention were tested for pre- and postemergence herbicidal activity using a variety of crops and weeds. The test plants included soybean (Glycine max var. Winchester), field corn (Zea mays var. Pioneer 3732), wheat (Triticum aestivum var. Lew), morningglory (Ipomea lacunosa or Ipomea hederacea), velvetleaf (Abutilon theophrasti), green foxtail (Setaria viridis), Johnsongrass (Sorghum halepense), blackgrass (Aloepecurus myosuroides), common chickweed (Stellaria media), and common cocklebur (Xanthium strumarium L.).
For preemergence testing, two disposable fiber flats (8 cm×15 cm×25 cm) for each rate of application of each candidate herbicide were filled to an approximate depth of 6.5 cm with steam-sterilized sandy loam soil. The soil was leveled and impressed with a template to provide five evenly spaced furrows 13 cm long and 0.5 cm deep in each flat. Seeds of soybean, wheat, corn, green foxtail, and johnsongrass were planted in the furrows of the first flat, and seeds of velvetleaf, morningglory, common chickweed, cocklebur, and blackgrass were planted in the furrows of the second flat. The five-row template was employed to firmly press the seeds into place. A topping soil of equal portions of sand and sandy loam soil was placed uniformly on top of each flat to a depth of approximately 0.5 cm. Flats for postemergence testing were prepared in the same manner except that they were planted 9-14 days prior to the preemergence flats and were placed in a greenhouse and watered, thus allowing the seeds to germinate and the foliage to develop.
In both pre- and postemergence tests, a stock solution of the candidate herbicide was prepared by dissolving 0.27 g of the compound in 20 mL of water/acetone (50/50) containing 0.5% v/v sorbitan monolaurate. For an application rate of 3000 g/ha of herbicide a 10 mL portion of the stock solution was diluted with water/acetone (50/50) to 45 mL.
The preemergence flats were initially subjected to a light water spray. The four flats were placed two by two along a conveyor belt (i.e., the two preemergence followed by the two postemergence flats). The conveyor belt fed under a spray nozzle mounted about ten inches above the post-emergent foliage. The preemergent flats were elevated on the belt so that the soil surface was at the same level below the spray nozzle as the foliage canopy of the postemergent plants. The spray of herbicidal solution was commenced and once stabilized, the flats were passed under the spray at a speed to receive a coverage equivalent of 100 L/ha. At this coverage the application rates are those shown in the above table for the individual herbicidal solutions. The preemergence flats were watered immediately thereafter, placed in the greenhouse and watered regularly at the soil surface. The postemergence flats were immediately placed in the green-house and not watered until 24 hours after treatment with the test solution. Thereafter they were regularly watered at ground level. After 12-17 days the plants were examined and the phytotoxicity data were recorded.
Phytotoxicity data were taken as percent control. Percent control was determined by a method similar to the 0 to 100 rating system disclosed in “Research Methods in Weed Science,” 2nd ed., B. Truelove, Ed.; Southern Weed Science Society; Auburn University, Auburn, Ala., 1977.

[16] = tested on: field corn (Zea mays var. Pioneer 3732); test: Preemergence herbicidal activity, corn; settings: Rate of Application 0.3 Kg/Ha, examined after 12-17 days
[17] = tested on: common cocklebur (Xanthium strumarium L.); test: Postemergence herbicidal activity, cocklebur; settings: rate of application 0.3 Kg/Ha, rated after 12-17 days
[18] = tested on: blackgrass (Aloepecurus myosuroides); test: Preemergence herbicidal activity, blackgrass; settings: Rate of Application 0.3 Kg/Ha, examined after 12-17 days
[19] = tested on: green foxtail (Setaria viridis); test: Preemergence herbicidal activity, green foxtail; settings: Rate of Application 0.3 Kg/Ha, examined after 12-17 days

SMILES	Postemergence herbicidal activity (% control) ABUTH [1]	PREEMERGENCE HERBICIDAL ACTIVITY (% CONTROL) SOY [2]	PREEMERGENCE HERBICIDAL ACTIVITY (% CONTROL) STEME [3]	PREEMERGENCE HERBICIDAL ACTIVITY (% CONTROL) XANPE [4]	PREEMERGENCE HERBICIDAL ACTIVITY (% CONTROL) WHT [5]	Postemergence herbicidal activity (% control) IPOSS [6]	PREEMERGENCE HERBICIDAL ACTIVITY (% CONTROL) SORHA [7]	PREEMERGENCE HERBICIDAL ACTIVITY (% CONTROL) ABUTH [8]	PREEMERGENCE HERBICIDAL ACTIVITY (% CONTROL) IPOSS [9]	Postemergence herbicidal activity (% control) SOY [10]	Postemergence herbicidal activity (% control) WHT [11]	Postemergence herbicidal activity (% control) SORHA [12]	Postemergence herbicidal activity (% control) SETVI [13]	Postemergence herbicidal activity (% control) CRN [14]	Postemergence herbicidal activity (% control) ALOMY [15]	PREEMERGENCE HERBICIDAL ACTIVITY (% CONTROL) CRN [16]	Postemergence herbicidal activity (% control) XANPE [17]	PREEMERGENCE HERBICIDAL ACTIVITY (% CONTROL) ALOMY [18]	PREEMERGENCE HERBICIDAL ACTIVITY (% CONTROL) SETVI [19]
Cn1c(C(F)(F)F)cc(=O)n(-c2c(F)cc(Cl)c3oc(NS(C)(=O)=O)nc23)c1=O [Compound 42]	90%	0%	30%	20%	10%	60%	0%	100%	60%	65%	30%	20%	100%	60%	40%	0%	50%	50%	30%
Cn1c(C(F)(F)F)cc(=O)n(-c2c(F)cc(Cl)c3nc(CCCc4ccccc4)[nH]c23)c1=O [Compound 380]	100%	80%		80%	35%	100%	70%	100%	100%	95%	30%	80%	100%	95%	70%	20%	100%	90%	100%
Cn1c(C(F)(F)F)cc(=O)n(-c2c(F)cc(Cl)c3nc(Cc4ccccc4Cl)[nH]c23)c1=O [Compound 381]	100%	100%		100%	40%	100%	80%	100%	100%	95%	40%	100%	100%	95%	100%	80%	100%	90%	100%
Cn1c(C(F)(F)F)cc(=O)n(-c2c(F)cc(Cl)c3nc(Cc4cccc(Cl)c4)[nH]c23)c1=O [Compound 382]	100%	60%		60%	45%	100%	80%	100%	70%	80%	40%	80%	90%	100%	80%	30%	100%	90%	95%
Cn1c(C(F)(F)F)cc(=O)n(-c2c(F)cc(Cl)c3nc(Cc4ccc(Cl)cc4)[nH]c23)c1=O [Compound 383]	100%	80%		70%	40%	95%	55%	100%	60%	95%	40%	70%	95%	95%	60%	20%	100%	80%	75%
